Measurements published in US20230015478A1, “GLP-1 RECEPTOR AGONISTS HAVING IMPROVED PHARMACOLOGICAL AND DRUG DELIVERY PROPERTIES” (priority 2021, published 2023).
Like-named read-outs stand apart in the source and are kept apart here. Blank lines part the entries; values can stand above or below the compound they belong to. Numbered stars: 1 amine (or outer) side, 2 acyl side, 3 side chain; on linkers, the order of the positions; unused ones are H or OH. Square brackets hold non-standard residues; d marks the D form. Side chains are listed from the residue outwards. Peptide text beside a SMILES is read from it. * marks the point of attachment. Dap(Nα-HOOC(CH2)16CO)OH = O=C(O)CCCCCCCCCCCCCCCCC(=O)N[C@@H](CN*)C(=O)O; Phe(3,4,5-F3) = N[C@@H](Cc1cc(F)c(F)c(F)c1)C(=O)O; Phe(3-CF3) = N[C@@H](Cc1cccc(C(F)(F)F)c1)C(=O)O; Bip = N[C@@H](Cc1ccc(-c2ccccc2)cc1)C(=O)O; C18 diacid = O=C(O)CCCCCCCCCCCCCCCCC(=O)*; Hydrocinnamoyl(4-I) = O=C(CCc1ccc(I)cc1)*; X1 = C[C@@](CCc1ccccc1)(N[*:1])C(=O)[*:2]; X2 = O=C(CCc1ccc(I)cc1)N[C@@H](CN*)C(=O)O; αMePhe(2-F) = C[C@](N)(Cc1ccccc1F)C(=O)O; Phe(2-Cl) = N[C@@H](Cc1ccccc1Cl)C(=O)O; γGlu = O=C(O)[C@H](CCC(=O)[*:2])N[*:1]; hPhe = N[C@@H](CCc1ccccc1)C(=O)O; αMeP = C[C@@]1(C(=O)O)CCCN1; AEEA = NCCOCCOCC(=O)O; Aib = CC(C)(N)C(=O)O

Target: T1, hGLP1 receptor (Homo sapiens, UniProt P43220)
T1 construct: expressed in transfected cells; host or cells: HEK (human embryonic kidney) cells co-expressing hGLP1 receptor and CRE-Luciferase
T1 sequence (P43220 24-463): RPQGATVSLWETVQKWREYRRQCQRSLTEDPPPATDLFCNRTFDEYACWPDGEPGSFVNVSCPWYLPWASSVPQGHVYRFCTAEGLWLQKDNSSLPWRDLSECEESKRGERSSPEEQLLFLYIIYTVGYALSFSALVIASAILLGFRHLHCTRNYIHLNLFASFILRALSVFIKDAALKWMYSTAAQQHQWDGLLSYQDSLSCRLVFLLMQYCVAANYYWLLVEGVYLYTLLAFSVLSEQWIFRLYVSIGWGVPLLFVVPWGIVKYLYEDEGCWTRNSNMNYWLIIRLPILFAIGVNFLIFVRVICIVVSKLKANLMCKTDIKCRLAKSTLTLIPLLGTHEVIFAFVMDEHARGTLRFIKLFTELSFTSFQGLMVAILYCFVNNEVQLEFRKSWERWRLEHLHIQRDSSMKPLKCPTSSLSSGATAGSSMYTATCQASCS
Test: cAMP HTRF agonist assay in HEK cells co-expressing hGLP1 receptor and CRE-Luciferase
Assay type: cell-based
How it was run: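 HEK cells co-expressing hGLP1R and CRE-luciferase, 1000 cells/well in DPBS with 500 μM IBMX, exposed to peptides or exendin-4 reference for 30 min; 11-point 1:3 series from top 1.0 μM. cAMP measured by HTRF (665/615 nm) after 1 h at room temperature; EC50 from 4-parameter logistic fit.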

[1] = cAMP EC50, nM (0.1% albumin), Table 6, 0.1% albumin
[2] = cAMP EC50, nM (0.1% albumin), Table 1, 0.1% albumin
[3] = cAMP EC50, nM (0.1% albumin), Table 3, 0.1% albumin

EC50 [1]: 5.1 nM
Compound: C[C@@H](O)[C@H](NC(=O)CNC(=O)[C@H](CCC(=O)O)NC(=O)[C@]1(C)CCCN1C(=O)[C@@H](N)Cc1c[nH]cn1)C(=O)N[C@@](C)(Cc1ccccc1F)C(=O)N[C@H](C(=O)N[C@@H](CO)C(=O)N[C@@H](CC(=O)O)C(=O)N[C@@H](Cc1ccc(-c2ccccc2)cc1)C(=O)N[C@@H](Cc1ccc(-c2ccccc2)cc1)C(=O)N[C@@H](CCCCNC(=O)CC[C@H](NC(=O)CCCCCCCCCCCCCCCCC(=O)O)C(=O)O)C(N)=O)[C@@H](C)O [4-69, H2N-His-α-MePro-Glu-Gly-Thr-α-MePhe(2-F)-Thr-Ser-Asp-Bip-Bip-C(O)NH-RY25] (H-H[αMeP]EGT[αMePhe(2-F)]TSD[Bip][Bip]K([γGlu-C18 diacid])-NH2)

EC50 [2]: 97.5 nM
Compound: C[C@@H](O)[C@H](NC(=O)CNC(=O)[C@H](CCC(=O)O)NC(=O)C(C)(C)NC(=O)[C@@H](N)Cc1c[nH]cn1)C(=O)N[C@@H](Cc1cccc(C(F)(F)F)c1)C(=O)N[C@H](C(=O)N[C@@H](CO)C(=O)N[C@@H](CC(=O)O)C(=O)N[C@@H](Cc1ccc(-c2ccccc2)cc1)C(=O)N[C@@H](Cc1ccc(-c2ccccc2)cc1)C(N)=O)[C@@H](C)O [3-7, H2N-His-Aib-Glu-Gly-Thr-Phe(3-CF3)-Thr-Ser-Asp-Bip-Bip-C(O)NH2] (H-H[Aib]EGT[Phe(3-CF3)]TSD[Bip][Bip]-NH2)

EC50 [3]: 2.7 nM
Compound: C[C@@H](O)[C@H](NC(=O)CNC(=O)[C@H](CCC(=O)O)NC(=O)C(C)(C)NC(=O)C(C)(C)N)C(=O)N[C@@](C)(Cc1ccccc1F)C(=O)N[C@H](C(=O)N[C@@H](CO)C(=O)N[C@@H](CC(=O)O)C(=O)N[C@@H](Cc1ccc(-c2ccccc2)cc1)C(=O)N[C@@H](Cc1ccc(-c2ccccc2)cc1)C(N)=O)[C@@H](C)O [3-30, H2N-Aib-Aib-Glu-Gly-Thr-αMePhe(2-F)-Thr-Ser-Asp-Bip-Bip-C(O)NH2] (H-[Aib][Aib]EGT[αMePhe(2-F)]TSD[Bip][Bip]-NH2)

EC50 (read-out: cAMP EC50, nM (0.1% albumin), Table 6, 0.1% albumin): 0.008 nM
Compound: H2N-His-α-MePro-Glu-Gly-Thr-α-MePhe(2-F)-Thr-Ser-Asp-FN3(C18 acid)-Bib-C(O)NH2 [4-71]

EC50 [1]: 1.2 nM
Compound: C[C@@H](O)[C@H](NC(=O)CNC(=O)[C@H](CCC(=O)O)NC(=O)[C@]1(C)CCCN1C(=O)[C@@H](N)Cc1c[nH]cn1)C(=O)N[C@@](C)(Cc1ccccc1F)C(=O)N[C@H](C(=O)N[C@@H](CO)C(=O)N[C@@H](CC(=O)O)C(=O)N[C@@H](Cc1ccc(-c2ccccc2)cc1)C(=O)N[C@@H](Cc1ccc(-c2ccccc2)cc1)C(=O)NC(C)(C)C(=O)NCCOCCOCC(=O)NCCOCCOCC(=O)NC[C@H](NC(=O)CCCCCCCCCCCCCCCCC(=O)O)C(=O)O)[C@@H](C)O [4-63, H2N-His-α-MePro-Glu-Gly-Thr-α-MePhe(2-F)-Thr-Ser-Asp-Bip-Bip-C(O)NH-RY19] (H-H[αMeP]EGT[αMePhe(2-F)]TSD[Bip][Bip][Aib][AEEA][AEEA]-{Dap(Nα-HOOC(CH2)16CO)OH})

EC50 [1]: 2.9 nM
Compound: C[C@@H](O)[C@H](NC(=O)CNC(=O)[C@H](CCC(=O)O)NC(=O)[C@]1(C)CCCN1C(=O)[C@@H](N)Cc1c[nH]cn1)C(=O)N[C@@](C)(Cc1ccccc1F)C(=O)N[C@H](C(=O)N[C@@H](CO)C(=O)N[C@@H](CC(=O)O)C(=O)N[C@@H](Cc1ccc(-c2ccccc2)cc1)C(=O)N[C@@H](Cc1ccc(-c2ccccc2)cc1)C(=O)NCCOCCOCC(=O)N[C@@H](CCCCNC(=O)CCc1ccc(I)cc1)C(N)=O)[C@@H](C)O [4-66, H2N-His-α-MePro-Glu-Gly-Thr-α-MePhe(2-F)-Thr-Ser-Asp-Bip-Bip-C(O)NH-RY22] (H-H[αMeP]EGT[αMePhe(2-F)]TSD[Bip][Bip][AEEA]K(Hydrocinnamoyl(4-I))-NH2)

EC50 [2]: 44.6 nM
Compound: C[C@@H](O)[C@H](NC(=O)CNC(=O)[C@H](CCC(=O)O)NC(=O)C(C)(C)NC(=O)[C@@H](N)Cc1c[nH]cn1)C(=O)N[C@@H](Cc1cc(F)c(F)c(F)c1)C(=O)N[C@H](C(=O)N[C@@H](CO)C(=O)N[C@@H](CC(=O)O)C(=O)N[C@@H](Cc1ccc(-c2ccccc2)cc1)C(=O)N[C@@H](Cc1ccc(-c2ccccc2)cc1)C(N)=O)[C@@H](C)O [3-9, H2N-His-Aib-Glu-Gly-Thr-Phe(3,4,5-F)-Thr-Ser-Asp-Bip-Bip-C(O)NH2] (H-H[Aib]EGT[Phe(3,4,5-F3)]TSD[Bip][Bip]-NH2)

EC50 (cAMP EC50, nM (0.1% albumin), Table 4, 0.1% albumin): 3.1 nM
Compound: CC(C)C[C@H](NC(=O)[C@@H](N)CCC(=O)O)C(=O)NC(C)(C)C(=O)N[C@@H](CC(=O)O)C(=O)NCC(=O)N[C@H](C(=O)N[C@@](C)(Cc1ccccc1F)C(=O)N[C@H](C(=O)N[C@@H](CO)C(=O)N[C@@H](CC(=O)O)C(=O)N[C@@H](Cc1ccc(-c2ccccc2)cc1)C(=O)N[C@@H](Cc1ccc(-c2ccccc2)cc1)C(N)=O)[C@@H](C)O)[C@@H](C)O [2-7, H2N-Glu-Leu-Aib-Asp-Gly-Thr-α-MePhe(2-F)-Thr-Ser-Asp-Bip-Bip-C(O)NH2] (H-EL[Aib]DGT[αMePhe(2-F)]TSD[Bip][Bip]-NH2)

EC50 [1]: 272 nM
Compound: C[C@@H](O)[C@H](NC(=O)CNC(=O)[C@H](CCC(=O)O)NC(=O)[C@]1(C)CCCN1C(=O)[C@@H](N)Cc1c[nH]cn1)C(=O)N[C@@](C)(Cc1ccccc1F)C(=O)N[C@H](C(=O)N[C@@H](CO)C(=O)N[C@@H](CC(=O)O)C(=O)N[C@@H](Cc1ccc(-c2ccccc2)cc1)C(=O)N[C@@H](Cc1ccc(-c2ccccc2)cc1)C(=O)N[C@@H](CCCCNC(=O)COCCOCCNC(=O)COCCOCCNC(=O)CC[C@H](NC(=O)CCCCCCCCCCCCCCCCC(=O)O)C(=O)O)C(N)=O)[C@@H](C)O [4-61, H2N-His-α-MePro-Glu-Gly-Thr-α-MePhe(2-F)-Thr-Ser-Asp-Bip-Bip-C(O)NH-RY17] (H-H[αMeP]EGT[αMePhe(2-F)]TSD[Bip][Bip]K([AEEA-AEEA-γGlu-C18 diacid])-NH2)

EC50 [2]: 32.6 nM
Compound: C[C@@H](O)[C@H](NC(=O)CNC(=O)[C@H](CCC(=O)O)NC(=O)C(C)(C)NC(=O)[C@@H](N)Cc1c[nH]cn1)C(=O)N[C@@H](CCc1ccccc1)C(=O)N[C@H](C(=O)N[C@@H](CO)C(=O)N[C@@H](CC(=O)O)C(=O)N[C@@H](Cc1ccc(-c2ccccc2)cc1)C(=O)N[C@@H](Cc1ccc(-c2ccccc2)cc1)C(N)=O)[C@@H](C)O [3-11, H2N-His-Aib-Glu-Gly-Thr-hPhe-Thr-Ser-Asp-Bip-Bip-C(O)NH2] (H-H[Aib]EGT[hPhe]TSD[Bip][Bip]-NH2)

Compound: C[C@@H](O)[C@H](NC(=O)C(C)(C)NC(=O)[C@H](CCC(=O)O)NC(=O)C(C)(C)NC(=O)[C@@H](N)Cc1c[nH]cn1)C(=O)N[C@@](C)(Cc1ccccc1F)C(=O)N[C@H](C(=O)N[C@@H](CO)C(=O)N[C@@H](CC(=O)O)C(=O)N[C@@H](Cc1ccc(-c2ccccc2)cc1)C(=O)N[C@@H](Cc1ccc(-c2ccccc2)cc1)C(N)=O)[C@@H](C)O [3-32, H2N-His-Aib-Glu-Aib-Thr-αMePhe(2-F)-Thr-Ser-Asp-Bip-Bip-C(O)NH2] (H-H[Aib]E[Aib]T[αMePhe(2-F)]TSD[Bip][Bip]-NH2)
EC50 [3]: 15.8 nM

EC50 [1]: 9.7 nM
Compound: C[C@@H](O)[C@H](NC(=O)CNC(=O)[C@H](CCC(=O)O)NC(=O)C(C)(C)NC(=O)[C@@H](N)Cc1c[nH]cn1)C(=O)N[C@@](C)(Cc1ccccc1F)C(=O)N[C@H](C(=O)N[C@@H](CO)C(=O)N[C@@H](CC(=O)O)C(=O)N[C@@H](Cc1ccc(-c2ccccc2)cc1)C(=O)N[C@@H](Cc1ccc(-c2ccccc2)cc1)C(=O)N[C@@H](CCCCNC(=O)COCCOCCNC(=O)CC[C@H](NC(=O)CCCCCCCCCCCCCCCCC(=O)O)C(=O)O)C(N)=O)[C@@H](C)O [4-48, H2N-His-Aib-Glu-Gly-Thr-α-MePhe(2-F)-Thr-Ser-Asp-Bip-Bip-C(0)NH-RY10] (H-H[Aib]EGT[αMePhe(2-F)]TSD[Bip][Bip]K([AEEA-γGlu-C18 diacid])-NH2)

EC50 (Table 5, 0% albumin, read-out: cAMP EC50, nM (0% albumin)): 184 nM
Compound: C[C@@H](O)[C@H](NC(=O)CNC(=O)[C@H](CCC(=O)O)NC(=O)C(C)(C)NC(=O)[C@@H](N)Cc1c[nH]cn1)C(=O)N[C@@](C)(Cc1ccccc1F)C(=O)N[C@H](C(=O)N[C@@H](CO)C(=O)N[C@@H](CC(=O)O)C(=O)N[C@@](C)(CCc1ccccc1)C(=O)N[C@@H](Cc1ccc(-c2ccccc2)cc1)C(N)=O)[C@@H](C)O [4-3, H2N-His-Aib-Glu-Gly-Thr-α-MePhe(2-F)-Thr-Ser-Asp-α-MeHph-Bip-C(O)NH2] (H-H[Aib]EGT[αMePhe(2-F)]TSD[X1][Bip]-NH2)

fold lower potency than the parent peptide (1-4) (relative to parent 1-4): equipotency
Compound: C[C@@H](O)[C@H](NC(=O)CNC(=O)[C@H](CCC(=O)O)NC(=O)C(C)(C)NC(=O)[C@@H](N)Cc1c[nH]cn1)C(=O)N[C@@](C)(Cc1ccccc1F)C(=O)N[C@H](C(=O)N[C@@H](CO)C(=O)N[C@@H](CC(=O)O)C(=O)N[C@@H](Cc1ccc(-c2ccccc2)cc1)C(=O)N[C@@H](CCc1ccccc1)C(=O)NCCOCCOCC(=O)NCCOCCOCC(=O)NCCOCCOCC(=O)NC[C@H](NC(=O)CCc1ccc(I)cc1)C(=O)O)[C@@H](C)O [4-37, H2N-His-Aib-Glu-Gly-Thr-α-MePhe(2-F)-Thr-Ser-Asp-Bip-Hph-C(O)NH-RY3] (H-H[Aib]EGT[αMePhe(2-F)]TSD[Bip][hPhe][AEEA][AEEA][AEEA]-X2)

EC50 [2]: 4.5 nM
Compound: C[C@@H](O)[C@H](NC(=O)CNC(=O)[C@H](CCC(=O)O)NC(=O)C(C)(C)NC(=O)[C@@H](N)Cc1c[nH]cn1)C(=O)N[C@@H](Cc1ccccc1Cl)C(=O)N[C@H](C(=O)N[C@@H](CO)C(=O)N[C@@H](CC(=O)O)C(=O)N[C@@H](Cc1ccc(-c2ccccc2)cc1)C(=O)N[C@@H](Cc1ccc(-c2ccccc2)cc1)C(N)=O)[C@@H](C)O [3-2, H2N-His-Aib-Glu-Gly-Thr-Phe(2-Cl)-Thr-Ser-Asp-Bip-Bip-C(O)NH2] (H-H[Aib]EGT[Phe(2-Cl)]TSD[Bip][Bip]-NH2)
